Results on one compound are retold here after patent US4117145A, “1-Substituted pyrazoles” (Bayer Aktiengesellschaft, priority 1975, dated 1978).

This test concerns thromb formation (left jugular vein, rats). The test can be described thus: Antithrombotic action: thromb formation in supercooled left jugular vein of rats, thromb weighed 4 hours later. Type of test: in vivo, rat. How it is done: The left jugular vein of rats weighing 170 to 180 g was exposed under ether narcosis and supercooled to -12° C for 2 minutes to stimulate thromb formation. The thromb was isolated from the vein 4 hours later, and was weighed. The test animals were given the test preparation in tragacanth mucilage immediately before supercooling the wall of the blood vessel. As a result, the protective antithrombotic activity was tested in the first 4 hours after stimulating thromb formation.

SMILES strings stand for the structures.

As to `Cc1cc(OC(=O)c2ccco2)n(CCOc2ccc3ccccc3c2)n1` [Example 20, 5-(Furyl-(2)-carbonyloxy)-3-methyl-1-(2-(β-naphthyloxy)-ethyl)-pyrazole], the “reduction of size of the thrombs” value (after a 4 hour period of action) is 61%. In addition, the “Thromb size, mean value” (rats, 10 mg/kg, administered orally immediately before supercooling, thromb isolated 4 hours later, 12 experiments, control 115 ± 12 (14 experiments)) stood at 45 ± 10 µg. For the setting “rats, 10 mg/kg, administered orally, versus control animals without active compound”, this compound displayed an Inhibition in % of 61%.
